Like-named read-outs stand apart in the source and are kept apart here.
How the values were obtained:
[1] = tested on: PrP^Sc in dividing ScN2a-cl3 cells; format: cell-based, mouse; parameters: Dividing ELISA pEC50 (μM) 1st Expt. / Dividing ELISA pEC50 (μM) 2nd Expt. / Dividing ELISA pEC50 (μM) 3rd Expt. / Dividing ELISA pEC50 (μM) Mean: unit not given here; details: ScN2a-cl3 dividing cells
N2a-cl3 cells = experiment: cells; details: Mus musculus, N2a-cl3, read-out: Dividing Calcein EC50 (μM) Mean (n = 3)
[2] = tested on: PrP^Sc in nondividing ScN2a-cl3 cells; format: cell-based, mouse; details: read-out: Non-Dividing ELISA EC50 (μM) Mean (n = 3); ScN2a-c13 non-dividing cells; mean n = 3
[3] = read-out: Dividing ELISA EC50 (μM) 1st Expt., 1st determination
[4] = read-out: Dividing ELISA EC50 (μM) 2nd Expt., 2nd determination
[5] = read-out: Dividing ELISA EC50 (μM) 3rd Expt., 3rd determination
[6] = read-out: Dividing ELISA EC50 (μM) Mean, mean of three determinations

Row | Structure (SMILES) | Dividing ELISA pEC50 (μM) 1st Expt. ([1]; 1st determination) | Dividing ELISA pEC50 (μM) 2nd Expt. ([1]; 2nd determination) | Dividing ELISA pEC50 (μM) 3rd Expt. ([1]; 3rd determination) | Dividing ELISA pEC50 (μM) Mean ([1]; mean of three determinations) | EC50 [1, 3] | EC50 [1, 4] | EC50 [1, 5] | EC50 [1, 6] | EC50 (N2a-cl3 cells) | EC50 [2] | melting point
1 | Cc1ccc(Nc2nc(-c3ccc(-c4ccccn4)s3)cs2)nc1 [compound 26, (5-Methylpyridin-2-yl)-[4-(5-pyridin-2-yl-thiophen-2-yl)-thiazol-2-yl]-amine] | 5.80 | 6.06 | 5.91 | 5.92 | 1.58 µM | 0.879 µM | 1.22 µM | 1.23 µM | > 32 µM | > 32 µM | 197 to 199 °C
2 | COc1ccc(-c2csc(Nc3ncccn3)n2)cc1OC [compound 10, [4-(3,4-dimethoxyphenyl)-thiazol-2-yl]pyrimidin-2-yl-amine] | 5.49 | 5.17 | 5.73 | 5.46 | 3.25 µM | 6.71 µM | 1.85 µM | 3.94 µM | > 32 µM | > 32 µM | 225 to 228 °C
3 | Cc1ccc(Nc2nc(-c3ccccn3)cs2)nc1 [compound 24, (5-Methylpyridin-2-yl)-(4-pyridin-2-yl-thiazol-2-yl)-amine] | – | – | – | – | 1.62 µM | 0.507 µM | 0.449 µM | 0.86 µM | 0.389 µM | > 32 µM | 184 to 190 °C
4 | COc1ccc(-c2csc(Nc3ccc(C)cn3)n2)cc1 [compound 21, [4-(4-Methoxyphenyl)-thiazol-2-yl]-(5-methylpyridin-2-yl)-amine] | 5.30 | 5.72 | 5.66 | 5.56 | 5.02 µM | 1.89 µM | 2.19 µM | 3.03 µM | > 32 µM | > 32 µM | 246 to 248 °C
5 | COc1ccc(-c2csc(N(C)c3cc4ccccc4cn3)n2)cc1OC [compound 49, [4-(3,4-dimethoxyphenyl)-thiazol-2-yl]-isoquinolin-3-yl-methyl-amine] | 6.82 | 6.71 | 7.08 | 6.87 | 0.152 µM | 0.196 µM | 0.083 µM | 0.144 µM | > 10 µM | > 10 µM | 165 to 166 °C
6 | COc1ccc(-c2csc(N(C(C)=O)c3cc4ccccc4cn3)n2)cc1OC [compound 50, N-[4-(3,4-dimethoxyphenyl)-thiazol-2-yl]-N-isoquinolin-3-yl-acetamide] | 7.04 | 7.05 | 7.19 | 7.09 | 0.091 µM | 0.089 µM | 0.065 µM | 0.082 µM | > 10 µM | > 10 µM | 164 to 165 °C
7 | c1ccc(-c2csc(Nc3cc4ccccc4cn3)n2)cc1 [compound 33, Isoquinolin-3-yl-(4-phenylthiazol-2-yl)-amine] | 5.69 | 5.55 | 5.37 | 5.53 | 2.06 µM | 2.85 µM | 4.32 µM | 3.08 µM | > 32 µM | > 32 µM | 265 to 267 °C
8 | COc1ccc(NC(=O)c2csc(Nc3ccc(C)cn3)n2)cc1OC [compound 46, 2-(5-Methylpyridin-2-ylamino)-thiazole-4-carboxylic acid (3,4-dimethoxyphenyl)-amide] | 5.50 | 5.72 | 5.66 | 5.62 | 3.19 µM | 1.93 µM | 2.21 µM | 2.44 µM | > 32 µM | > 32 µM | 212 to 214 °C
9 | COc1ccc(-c2csc(Nc3cc(C)ccn3)n2)cc1OC [compound 16, [4-(3,4-dimethoxyphenyl)-thiazol-2-yl]-(4-methylpyridin-2-yl)-amine] | 5.95 | 6.13 | 5.95 | 6.01 | 1.13 µM | 0.736 µM | 1.13 µM | 1 µM | > 32 µM | > 32 µM | 211 to 213 °C
10 | COc1ccccc1-c1csc(Nc2ccc(C)cn2)n1 [compound 22, [4-(2-Methoxyphenyl)-thiazol-2-yl]-(5-methylpyridin-2-yl)-amine] | >4.5 | 4.58 | 4.52 | – | > 32 µM | 26.1 µM | 30.2 µM | > 29 µM | > 32 µM | > 32 µM | 228 to 230 °C
11 | COc1ccc(-c2csc(C(=O)Nc3cc4ccccc4cn3)n2)cc1OC [compound 48, 4-(3,4-dimethoxyphenyl)-thiazole-2-carboxylic acid isoquinolin-3-ylamide] | >4.5 | >4.5 | >4.5 | – | > 10 µM | > 10 µM | > 10 µM | > 10 µM | > 10 µM | > 10 µM | 196 to 202 °C
12 | COc1ccc(-c2csc(Nc3cccc4ccccc34)n2)cc1OC [compound 20, [4-(3,4-dimethoxyphenyl)-thiazol-2-yl]-naphthalen-1-yl-amine] | >4.5 | >4.5 | >4.5 | – | > 32 µM | > 32 µM | > 32 µM | > 32 µM | > 32 µM | > 32 µM | 244 to 246 °C
13 | COc1ccc(-c2csc(Nc3ccccc3)n2)cc1OC [compound 9, [4-(3,4-dimethoxyphenyl)-thiazol-2-yl]-phenyl-amine] | 5.13 | 5.14 | 5.35 | 5.21 | 7.4 µM | 7.29 µM | 4.45 µM | 6.38 µM | > 32 µM | > 32 µM | 170 to 174 °C
14 | COc1ccc(-c2csc(Nc3ccccn3)n2)cc1OC [compound 6, [4-(3,4-dimethoxyphenyl)-thiazol-2-yl]pyridin-2-yl-amine] | – | – | – | – | 11.8 µM | 6.47 µM | 6.38 µM | 8.22 µM | > 32 µM | > 32 µM | 211 to 214 °C
